Measurements taken from the NIST ThermoML archive (doi:10.1016/j.jct.2014.01.006).
Where “and” joins values, the source holds several entries; their conditions need not be identical. Equal values may be shown once. Numbers after ± are expanded uncertainties.

What was measured:
[1] = for vapor or sublimation pressure: Liquid, Ebulliometric method (Recirculating still); for Triple point temperature: Adiabatic calorimetry
[2] = Molar enthalpy of transition or fusion; conditions: Crystal; Adiabatic calorimetry
[3] = molar heat capacity at saturation pressure

c1ccc(-c2ccc3ccccc3c2)cc1 [2-phenylnaphthalene]
[1]
Conditions | Triple point temperature [K] | vapor or sublimation pressure [kPa]
482.85 K | – | 1.996 ± 0.0082
502.83 K | – | 3.998 ± 0.0084
511.75 K | – | 5.335 ± 0.0089
524.93 K | – | 7.993 ± 0.0095
534.9 K | – | 10.67 ± 0.01
542.89 K | – | 13.33 ± 0.011
551.2 K | – | 16.66 ± 0.013
558.16 K | – | 19.95 ± 0.014
567.23 K | – | 25.03 ± 0.016
576.35 K | – | 31.16 ± 0.018
585.57 K | – | 38.56 ± 0.022
594.82 K | – | 47.36 ± 0.025
604.12 K | – | 57.8 ± 0.027
Crystal | 374.77 ± 0.039 | –
Metastable crystal | 331.4 ± 0.1 | –

Conditions | Molar enthalpy of transition or fusion [kcal/mol]
[2] | 5.406 ± 0.00574

[3]
Conditions | molar heat capacity
5.559 K, Metastable crystal, Vacuum adiabatic calorimetry | 0.7317 ± 0.025 J/K/mol
6.48 K, Metastable crystal, Vacuum adiabatic calorimetry | 1.172 ± 0.042 J/K/mol
7.437 K, Metastable crystal, Vacuum adiabatic calorimetry | 1.821 ± 0.058 J/K/mol
8.415 K, Metastable crystal, Vacuum adiabatic calorimetry | 2.519 ± 0.083 J/K/mol
9.445 K, Metastable crystal, Vacuum adiabatic calorimetry | 3.484 ± 0.11 J/K/mol
10.55 K, Metastable crystal, Vacuum adiabatic calorimetry | 4.639 ± 0.042 J/K/mol
11.76 K, Metastable crystal, Vacuum adiabatic calorimetry | 5.912 ± 0.05 J/K/mol
13.12 K, Metastable crystal, Vacuum adiabatic calorimetry | 7.541 ± 0.067 J/K/mol
14.58 K, Metastable crystal, Vacuum adiabatic calorimetry | 9.304 ± 0.075 J/K/mol
16.16 K, Metastable crystal, Vacuum adiabatic calorimetry | 11.42 ± 0.083 J/K/mol
17.89 K, Metastable crystal, Vacuum adiabatic calorimetry | 13.64 ± 0.1 J/K/mol
19.78 K, Metastable crystal, Vacuum adiabatic calorimetry | 16.13 ± 0.11 J/K/mol
21.84 K, Metastable crystal, Vacuum adiabatic calorimetry | 18.86 ± 0.12 J/K/mol
24.08 K, Metastable crystal, Vacuum adiabatic calorimetry | 21.79 ± 0.14 J/K/mol
26.55 K, Metastable crystal, Vacuum adiabatic calorimetry | 25.04 ± 0.15 J/K/mol
29.3 K, Metastable crystal, Vacuum adiabatic calorimetry | 28.54 ± 0.17 J/K/mol
32.36 K, Metastable crystal, Vacuum adiabatic calorimetry | 32.33 ± 0.083 J/K/mol
35.77 K, Metastable crystal, Vacuum adiabatic calorimetry | 36.35 ± 0.091 J/K/mol
39.57 K, Metastable crystal, Vacuum adiabatic calorimetry | 40.62 ± 0.1 J/K/mol
43.81 K, Metastable crystal, Vacuum adiabatic calorimetry | 45.16 ± 0.11 J/K/mol
48.55 K, Metastable crystal, Vacuum adiabatic calorimetry | 49.75 ± 0.11 J/K/mol
53.87 K, Metastable crystal, Vacuum adiabatic calorimetry | 54.71 ± 0.12 J/K/mol
54.57 K, Metastable crystal, Vacuum adiabatic calorimetry | 55.24 ± 0.12 J/K/mol
59.82 K, Metastable crystal, Vacuum adiabatic calorimetry | 59.78 ± 0.12 J/K/mol
59.83 K, Metastable crystal, Vacuum adiabatic calorimetry | 59.82 ± 0.13 J/K/mol
65.64 K, Metastable crystal, Vacuum adiabatic calorimetry | 64.42 ± 0.13 J/K/mol
66.41 K, Metastable crystal, Vacuum adiabatic calorimetry | 64.99 ± 0.14 J/K/mol
72.14 K, Metastable crystal, Vacuum adiabatic calorimetry | 69.36 ± 0.14 J/K/mol
79.33 K, Metastable crystal, Vacuum adiabatic calorimetry | 74.52 ± 0.15 J/K/mol
84.66 K, Metastable crystal, Vacuum adiabatic calorimetry | 78.26 ± 0.16 J/K/mol
87.38 K, Metastable crystal, Vacuum adiabatic calorimetry | 80.02 ± 0.17 J/K/mol
91.53 K, Metastable crystal, Vacuum adiabatic calorimetry | 82.9 ± 0.22 J/K/mol
96.29 K, Metastable crystal, Vacuum adiabatic calorimetry | 86.19 ± 0.22 J/K/mol
100.11 K, Metastable crystal, Vacuum adiabatic calorimetry | 88.71 ± 0.22 J/K/mol
109.67 K, Metastable crystal, Vacuum adiabatic calorimetry | 95.07 ± 0.23 J/K/mol
119.51 K, Metastable crystal, Vacuum adiabatic calorimetry | 101.67 ± 0.23 J/K/mol
129.29 K, Metastable crystal, Vacuum adiabatic calorimetry | 108.34 ± 0.24 J/K/mol
139.13 K, Metastable crystal, Vacuum adiabatic calorimetry | 115.15 ± 0.25 J/K/mol
149.04 K, Metastable crystal, Vacuum adiabatic calorimetry | 122.22 ± 0.26 J/K/mol
159.05 K, Metastable crystal, Vacuum adiabatic calorimetry | 129.45 ± 0.27 J/K/mol
169.13 K, Metastable crystal, Vacuum adiabatic calorimetry | 137.04 ± 0.27 J/K/mol
179.22 K, Metastable crystal, Vacuum adiabatic calorimetry | 144.69 ± 0.28 J/K/mol
189.28 K, Metastable crystal, Vacuum adiabatic calorimetry | 152.55 ± 0.29 J/K/mol
199.33 K, Metastable crystal, Vacuum adiabatic calorimetry | 160.58 ± 0.3 J/K/mol
210.43 K, Metastable crystal, Vacuum adiabatic calorimetry | 169.63 ± 0.32 J/K/mol
222.54 K, Metastable crystal, Vacuum adiabatic calorimetry | 179.67 ± 0.32 J/K/mol
234.7 K, Metastable crystal, Vacuum adiabatic calorimetry | 190.12 ± 0.33 J/K/mol
246.9 K, Metastable crystal, Vacuum adiabatic calorimetry | 200.49 ± 0.35 J/K/mol
260.13 K, Metastable crystal, Vacuum adiabatic calorimetry | 212.11 ± 0.36 J/K/mol
274.34 K, Metastable crystal, Vacuum adiabatic calorimetry | 224.81 ± 0.37 J/K/mol
281.75 K, Metastable crystal, Vacuum adiabatic calorimetry | 231.62 ± 0.38 J/K/mol
287.18 K, Metastable crystal, Vacuum adiabatic calorimetry | 236.87 ± 0.39 J/K/mol
288.45 K, Metastable crystal, Vacuum adiabatic calorimetry | 238 ± 0.39 J/K/mol
288.88 K, Metastable crystal, Vacuum adiabatic calorimetry | 238.28 ± 0.39 J/K/mol
289.67 K, Metastable crystal, Vacuum adiabatic calorimetry | 239.32 ± 0.39 J/K/mol
290.86 K, Metastable crystal, Vacuum adiabatic calorimetry | 240.77 ± 0.39 J/K/mol
297.62 K, Metastable crystal, Vacuum adiabatic calorimetry | 247.26 ± 0.4 J/K/mol
302.22 K, Metastable crystal, Vacuum adiabatic calorimetry | 251.81 ± 0.41 J/K/mol
303.66 K, Metastable crystal, Vacuum adiabatic calorimetry | 253.46 ± 0.41 J/K/mol
304.26 K, Metastable crystal, Vacuum adiabatic calorimetry | 253.82 ± 0.41 J/K/mol
305.95 K, Metastable crystal, Vacuum adiabatic calorimetry | 255.73 ± 0.42 J/K/mol
316.27 K, Metastable crystal, Vacuum adiabatic calorimetry | 265.74 ± 0.42 J/K/mol
319.32 K, Metastable crystal, Vacuum adiabatic calorimetry | 269.07 ± 0.42 J/K/mol
319.63 K, Metastable crystal, Vacuum adiabatic calorimetry | 269.43 ± 0.42 J/K/mol
323.18 K, Metastable crystal, Vacuum adiabatic calorimetry | 273.51 ± 0.43 J/K/mol
328.64 K, Metastable crystal, Vacuum adiabatic calorimetry | 281.65 ± 0.44 J/K/mol
334.1 K, Crystal, Vacuum adiabatic calorimetry | 295.45 ± 0.46 J/K/mol
339.55 K, Crystal, Vacuum adiabatic calorimetry | 300.3 ± 0.47 J/K/mol
340.55 K, Crystal, Vacuum adiabatic calorimetry | 301.83 ± 0.47 J/K/mol
345.85 K, Crystal, Vacuum adiabatic calorimetry | 308.66 ± 0.47 J/K/mol
346.7 K, Crystal, Vacuum adiabatic calorimetry | 310.38 ± 0.47 J/K/mol
352.89 K, Crystal, Vacuum adiabatic calorimetry | 319.98 ± 0.49 J/K/mol
354.52 K, Crystal, Vacuum adiabatic calorimetry | 323.81 ± 0.49 J/K/mol
355.25 K, Crystal, Vacuum adiabatic calorimetry | 323.51 ± 0.49 J/K/mol
356.41 K, Crystal, Vacuum adiabatic calorimetry | 326.01 ± 0.5 J/K/mol
360.85 K, Crystal, Vacuum adiabatic calorimetry | 334.71 ± 0.51 J/K/mol
364.78 K, Crystal, Vacuum adiabatic calorimetry | 343.22 ± 0.52 J/K/mol
365.47 K, Crystal, Vacuum adiabatic calorimetry | 344.57 ± 0.52 J/K/mol
365.99 K, Crystal, Vacuum adiabatic calorimetry | 347.25 ± 0.53 J/K/mol
368.76 K, Crystal, Vacuum adiabatic calorimetry | 353.17 ± 0.53 J/K/mol
381.15 K, Liquid, Vacuum adiabatic calorimetry | 364.06 ± 0.54 J/K/mol
381.64 K, Liquid, Vacuum adiabatic calorimetry | 364.18 ± 0.54 J/K/mol
382.95 K, Liquid, Vacuum adiabatic calorimetry | 365.06 ± 0.54 J/K/mol
388.39 K, Liquid, Vacuum adiabatic calorimetry | 368.05 ± 0.55 J/K/mol
390.22 K, Liquid, Vacuum adiabatic calorimetry | 369.13 ± 0.55 J/K/mol
405.19 K, Liquid, Vacuum adiabatic calorimetry | 377.51 ± 0.56 J/K/mol
410.1 K, Liquid, Small sample (50 mg) DSC | 380.3 ± 9.3 J/K/mol and 382.63 ± 9.4 J/K/mol
422.04 K, Liquid, Vacuum adiabatic calorimetry | 386.86 ± 0.57 J/K/mol
430 K, Liquid, Small sample (50 mg) DSC | 394.6 ± 9.6 J/K/mol and 391.03 ± 9.6 J/K/mol
436.24 K, Liquid, Vacuum adiabatic calorimetry | 394.72 ± 0.57 J/K/mol
450 K, Liquid, Small sample (50 mg) DSC | 405.58 ± 9.9 J/K/mol and 401.51 ± 9.8 J/K/mol
470.1 K, Liquid, Small sample (50 mg) DSC | 411.15 ± 10 J/K/mol and 413.48 ± 10 J/K/mol
490 K, Liquid, Small sample (50 mg) DSC | 424.7 ± 10 J/K/mol and 423.46 ± 10 J/K/mol
510 K, Liquid, Small sample (50 mg) DSC | 434.93 ± 11 J/K/mol and 427.36 ± 10 J/K/mol
530.1 K, Liquid, Small sample (50 mg) DSC | 446.82 ± 11 J/K/mol and 444.24 ± 11 J/K/mol
550.1 K, Liquid, Small sample (50 mg) DSC | 457.21 ± 11 J/K/mol and 455.97 ± 11 J/K/mol
570.1 K, Liquid, Small sample (50 mg) DSC | 468.27 ± 11 J/K/mol and 467.27 ± 11 J/K/mol
590.1 K, Liquid, Small sample (50 mg) DSC | 477.92 ± 12 J/K/mol and 476.09 ± 12 J/K/mol
610.1 K, Liquid, Small sample (50 mg) DSC | 484.48 ± 12 J/K/mol and 484.15 ± 12 J/K/mol
